Data from patent US9439415B2, “Method for reducing damage by harmful organisms in corn cultivation” (priority 2012, dated 2016).

Columns and labels:
[1] = tested on: Diabrotica virgifera virgifera and Agriotes lineatus; experiment: Field furrow application test, lodge rate of corn due to damage by Diabrotica virgifera virgifera and Agriotes lineatus (Examples 4-8, 10, 11); type: in vivo; conditions: 165 days after application, versus non-treatment section
Source text: A chemical fertilizer (N:P:K=15:15:15) is applied to the soil surface of a cultivated land at 300 kg/ha, and the cultivated land is then plowed.
7 days after fertilization, for suppressing generation of weeds, the soil surface of the whole cultivated land is spray-treated with a mixed liquid containing thiencarbazone-methyl and isoxaflutole, each of which being a herbicide, and cyprosulfamide which is a safener at 150 L/ha so that the application amounts of thiencarbazone-methyl, isoxaflutole and cyprosulfamide are 9.2 g/ha, 23 g/ha and 15 g/ha, respectively. […]
17 days after application of clothianidin and tefluthrin, the number of plants of corn germinated is investigated, with central two rows of four rows of seeded furrows as an investigation section, for the treatment section and the non-treatment section. 165 days after application of clothianidin and tefluthrin, the number of plants of corn lodged due to damage by Diabrotica virgifera virgifera and Agriotes lineatus in the furrows of the treatment section and the non-treatment section, for which the number of plants of corn germinated is investigated, is investigated, a lodge rate is calculated in accordance with the following equation, and then an average lodge rate for the four investigation sections is determined. […]

Agriotes spp. = experiment: Field furrow spray test, mortality of corn plants from damage by Agriotes spp. (Example 9); type: in vivo; conditions: 50 g/ha, furrow spray 100 L/ha, 34 days after treatment, average of four sections, non-treatment section 16.35
Experimental: A land was ditched at intervals of 80 cm, a predetermined amount of a water-diluted liquid of an esfenvalerate emulsifiable concentrate (using 25 g/L of an EC preparation, trade name: Sumialpha 2.5 EC, manufactured by Philagro) or a water-diluted liquid of a lambda-cyhalothrin SC (using 100 g/L of a SC preparation, trade name: KAPATE ZEON, manufactured by SYNGENTA) was prepared so that the applied amount of an effective component was the amount described in Table 4, and the furrow was spray-treated with the liquid at a spray amount of 100 L/ha. Then, the furrow was seeded with corn (Zea Mays, variety name: Kubrik), and a soil on the side of the furrow was gathered together to close the furrow. A seeding density of corn was 87500 seeds/ha. They were defined as example sections 16 and 17.
For comparison, a non-treatment section, which was seeded with corn in the same manner as in the example sections except that a treatment with a chemical was not performed, was provided. […]
34 days after the treatment with a chemical, the number of plants of corn grown in each of the example sections 16 and 17 and the non-treatment section were investigated, a mortality of plants of corn died because of the damage by Agriotes spp. was calculated in accordance with the following equation, and then an average mortality of the four investigation sections was determined. […]

Structure (SMILES) | Lodge rate (%) ([1]; Example 11: water-diluted lambda-cyhalothrin SC in furrow, 100 g/ha) | Average mortality (%) (Agriotes spp.) | Lodge rate (%) ([1]; Example 10: water-diluted Sumialpha 2.5 EC in furrow, esfenvalerate 100 g/ha)
CC1(C)[C@H](C(=O)O[C@H](C#N)c2cccc(Oc3ccccc3)c2)[C@@H]1/C=C(\Cl)C(F)(F)F (racemic) [Lambda-cyhalothrin] | low lodge rate as compared to the non-treatment section | 3.35 | –
CC(C)[C@H](C(=O)O[C@H](C#N)c1cccc(Oc2ccccc2)c1)c1ccc(Cl)cc1 [Esfenvalerate] | – | 4.85 | low lodge rate as compared to the non-treatment section
